Results reported in US6410218B1, “Plasma-like solution” (BioTime, Inc., priority 1993, dated 2002).

Tests used:
[1] = Buffering capacity in a cell-free system (addition of 1.25 M HCl); format: physicochemical
Description: By contrast, the pH of HLB solution (initial pH 7.7) drops below 7.2 with the addition of about 0.01 ml of a 1.25 M HCl solution.
When the solution of the present invention is used as a blood substitute at hypothermic temperatures, medical grade sterile NaHCO3 is added to the heat sterilized solution (HL solution). The solution containing NaHCO3 is called HLB solution. Under in vivo conditions with oxygenation, HLB solution is shown to maintain pH above 7.3 in temperatures ranging from 1.6-36.1° C. (Tables 2 and 3).

[2] = cited from earlier work

NCC(CO)(CO)CO [25 mM TRIS, Tris[Hydroxymethyl]methyl aminomethane]
initial pH ([1]; cell-free solution before HCl addition): about 7.7
volume of 1.25 M HCl solution added with pH maintained above 7.2 ([1]; cell-free, initial pH about 7.7): up to 0.12 mls

hydroxyethyl starch
share of dose eliminated in the urine ([2]; 500 ml intravenous dose of 6% solution, after 24 hours): approximately 33%
share of dose remaining circulating ([2]; after 1 week): Approximately 10%
